According to patent US20130053430A1, “MODULATION OF CETP EXPRESSION” (Isis Pharmaceuticals, Inc., priority 2010, published 2013):
e = 2'-O-(2-methoxyethyl) (MOE); d = 2'-deoxy (DNA)

What was measured:
[1] = Plasma cholesterol and triglyceride levels in huCETP transgenic mice (Example 5); format: in vivo; details: 50 mg/kg i.p. twice per week; for HDL / LDL / Total cholesterol / Triglycerides / VLDL: plasma
Procedure: (§1) The mice were divided into five treatment groups. The first four groups received intraperitoneal injections of ISIS 349511, ISIS 349512, ISIS 349515, or ISIS 349517 at a dose of 50 mg/kg twice per week for 6 weeks. The fifth group received intraperitoneal injections of saline twice weekly for 6 weeks.
Plasma cholesterol were extracted at weeks 3 and 6 by the method of Bligh and Dyer (Bligh, E. G. and Dyer, W. J. Can. J. Biochem. Physiol. 37: 911-917, 1959) and measured with an Olympus clinical analyzer (Hitachi Olympus AU400e, Melville, N.Y.). HDL, LDL and VLDL cholesterol were individually measured by HPLC. Triglyceride levels were measured with the use of a commercially available triglyceride kit (DCL Triglyceride Reagent; Diagnostic Chemicals Ltd.). The results are presented in Tables 13 and 14 and are expressed in mg/dL. There was a significant increase in HDL levels in mice treated with ISIS oligonucleotides.

[2] = Liver function, plasma ALT and AST (Example 6); format: in vivo, mice; details: 50 mg/kg s.c. twice per week
Excerpt: (§2) The normal chow-fed mice were divided into three treatment groups. The cholesterol-enriched chow-fed mice were divided into three treatment groups. […] One chow-fed group and one cholesterol-enriched chow-fed group received subcutaneous injections of saline twice weekly for 6 weeks. The saline-injected groups served as the control groups to which the corresponding oligonucleotide-treated groups were compared.
Plasma concentrations of ALT (alanine transaminase) and AST (aspartate transaminase) at weeks 0, 3 and 6 were measured and the results are presented in Tables 18 and 19 expressed in IU/L.

human CETP mRNA = assay: Liver CETP mRNA in huCETP transgenic mice, normal chow (Example 5); format: in vivo; details: 50 mg/kg i.p. twice per week for 6 weeks, relative to PBS control
Procedure: Male huCETP transgenic mice were maintained on a 12-hour light/dark cycle and fed ad libitum normal Purina mouse chow. Animals were acclimated for at least 7 days in the research facility before initiation of the experiment. Antisense oligonucleotides (ASOs) were prepared in buffered saline (PBS) and sterilized by filtering through a 0.2 micron filter. Oligonucleotides were dissolved in 0.9% PBS for injection.
as §1
Twenty four hours after the final dose, the animals were sacrificed and liver tissue was isolated. Liver RNA was isolated for real-time PCR analysis of CETP. Two primer probe sets, hCETP (forward sequence […], designated herein as SEQ ID NO: 118; reverse sequence […], designated herein as SEQ ID NO: 119; probe sequence TGCGGACCGATGCCCCTGAX, designated herein as SEQ ID NO: 120) and hCETP2_LTS00182 (forward sequence […], designated herein as SEQ ID NO: 38; reverse sequence GGCTCACGCCTTTGCTGTT, designated herein as SEQ ID NO: 39: probe sequence CGGCTCGAGGTAGTGTTTACAGCCCTCX, designated herein as SEQ ID NO: 40), were used. These primer probe sets target the CETP mRNA transcript at different regions. As presented in Table 7, treatment with antisense oligonucleotides reduced CETP mRNA expression. The primer probe sets were used individually and collectively to measure CETP mRNA expression and gave similar results in all three cases. The RNA expression levels were normalized to murine Cyclophilin, a house-keeping gene, which is constitutively expressed. Cyclophilin levels were measured using the primer probe set described in Table 2. The results are expressed as percent inhibition of CETP mRNA, relative to the PBS control.

CETP mRNA = assay: Liver CETP mRNA in huApoB/huCETP/mLDLr mouse model for cardiovascular disease (Example 7); format: in vivo, human; details: huApoB+/−huCETP+/−mLDLr+/− mice (Groups B-E); ASO 25 mg/kg s.c. twice per week, nicotinic acid 2 g/kg/day s.c. + 1% in diet, 6 weeks; relative to PBS control (Group A)
Excerpt: The saline-injected group served as the control group to which oligonucleotide-treated groups were compared. […] This group served a negative control for the effects of the antisense oligonucleotides against CETP. The groups are further described in Table 27, and are designated letters A-F, by which they will be referred from henceforth.

[3] = Body and organ weights of huCETP transgenic mice (Example 5); format: in vivo; details: 50 mg/kg i.p. twice per week
Procedure: as §1
The body weights of the mice were measured pre-dose and regularly during the treatment period. The body weights are presented in Table 10, and are expressed in grams.

[4] = Plasma glucose (Example 6); format: in vivo, mice; details: 50 mg/kg s.c. twice per week
Procedure: as §2
(§3) Plasma glucose values were determined using a Beckman Glucose Analyzer II (Beckman Coulter) by a glucose oxidase method (Lott, J. A. et al., Clin. Chem. 21: 1754-1760, 1975).

[5] = Plasma glucose in huCETP transgenic mice (Example 5); format: in vivo; details: 50 mg/kg i.p. twice per week
Procedure: as §1, §3

Question: With “ISIS 349511: 5-10-5 MOE gapmer CCCGACCTCCTTGGAGACTT (sugars from the 5' end e5 d10 e5, backbone and methylation of C not given here)” as the substance, how does the “Percentage of HDL in total cholesterol” value ([1]; Week 3) read?
Answer: 73%

Question: And the “Percentage of HDL in total cholesterol” value ([1]; week 6)?
Answer: 76%

Question: What about the HDL ([1]; week 3) of the same substance?
Answer: 60 mg/dL

Question: What about the LDL ([1]; week 3) of the same substance?
Answer: 15 mg/dL

Question: What about the Total cholesterol ([1]; week 3) of the same substance?
Answer: 83 mg/dL

Question: What about the Triglycerides ([1]; week 3) of the same substance?
Answer: 87 mg/dL

Question: What about the HDL ([1]; week 6) of the same substance?
Answer: 66 mg/dL

Question: What about the LDL ([1]; week 6) of the same substance?
Answer: 17 mg/dL

Question: And the Total cholesterol ([1]; week 6)?
Answer: 88 mg/dL

Question: And the Triglycerides ([1]; week 6)?
Answer: 84 mg/dL

Question: What about the VLDL ([1]; week 6) of the same substance?
Answer: 4 mg/dL

Question: What about the Alanine transaminase levels ([2]; Cholesterol chow, Week 0) of the same substance?
Answer: 28 IU/L

Question: What about the Aspartate transaminase levels ([2]; Cholesterol chow, Week 0) of the same substance?
Answer: 49 IU/L

Question: What about the Alanine transaminase levels ([2]; Cholesterol chow, Week 3) of the same substance?
Answer: 28 IU/L

Question: And the Aspartate transaminase levels ([2]; Cholesterol chow, Week 3)?
Answer: 44 IU/L

Question: And the Alanine transaminase levels ([2]; Cholesterol chow, Week 6)?
Answer: 66 IU/L

Question: What about the Aspartate transaminase levels ([2]; Cholesterol chow, Week 6) of the same substance?
Answer: 123 IU/L

Question: And the Alanine transaminase levels ([2]; Normal chow, Week 0)?
Answer: 16 IU/L

Question: And the Aspartate transaminase levels ([2]; Normal chow, Week 0)?
Answer: 89 IU/L

Question: And the Alanine transaminase levels ([2]; Normal chow, Week 3)?
Answer: 22 IU/L

Question: What about the Aspartate transaminase levels ([2]; Normal chow, Week 3) of the same substance?
Answer: 47 IU/L

Question: What about the Alanine transaminase levels ([2]; Normal chow, Week 6) of the same substance?
Answer: 22 IU/L

Question: And the Aspartate transaminase levels ([2]; Normal chow, Week 6)?
Answer: 81 IU/L

Question: What about the “Percent inhibition of liver CETP mRNA expression, Combined primer probe sets” value (human CETP mRNA) of the same substance?
Answer: 88%

Question: And the “Percent inhibition of liver CETP mRNA expression, Primer probe set hCETP” value (human CETP mRNA)?
Answer: 90%

Question: And the “Percent inhibition of liver CETP mRNA expression, Primer probe set hCETP2_LTS00182” value (human CETP mRNA)?
Answer: 86%

Question: And the “Percent inhibition of liver CETP mRNA expression” value (CETP mRNA)?
Answer: 70%

Question: And the Body weights ([3]; Week 0)?
Answer: 19 grams

Question: And the Body weights ([3]; Week 1)?
Answer: 21 grams

Question: And the Body weights ([3]; Week 2)?
Answer: 23 grams

Question: What about the Body weights ([3]; Week 4) of the same substance?
Answer: 25 grams

Question: What about the Body weights ([3]; week 6) of the same substance?
Answer: 26 grams

Question: What about the “Organ weights, Kidney” value ([3]; week 6) of the same substance?
Answer: 312.5 mg

Question: And the “Organ weights, Liver” value ([3]; week 6)?
Answer: 1.3 g

Question: What about the “Organ weights, Spleen” value ([3]; week 6) of the same substance?
Answer: 76.0 mg

Question: What about the Glucose levels ([4]; Cholesterol chow, Week 0) of the same substance?
Answer: 238 mg/dL

Question: And the Glucose levels ([4]; Cholesterol chow, Week 3)?
Answer: 289 mg/dL

Question: What about the Glucose levels ([4]; Cholesterol chow, Week 6) of the same substance?
Answer: 225 mg/dL

Question: What about the Glucose levels ([4]; Normal chow, Week 0) of the same substance?
Answer: 239 mg/dL

Question: And the Glucose levels ([4]; Normal chow, Week 3)?
Answer: 288 mg/dL

Question: And the Glucose levels ([4]; Normal chow, Week 6)?
Answer: 206 mg/dL

Question: And the Glucose levels ([5]; week 3)?
Answer: 286 mg/dL

Question: What about the Glucose levels ([5]; week 6) of the same substance?
Answer: 245 mg/dL

Question: For “ISIS 349517: 5-10-5 MOE gapmer CAGCACTTTAATGCCAGTGG (sugars from the 5' end e5 d10 e5, backbone and methylation of C not given here)”, which “Percentage of HDL in total cholesterol” value ([1]; Week 3) is on record?
Answer: 75%

Question: And the “Percentage of HDL in total cholesterol” value ([1]; week 6)?
Answer: 74%

Question: And the HDL ([1]; week 3)?
Answer: 59 mg/dL

Question: What about the LDL ([1]; week 3) of the same substance?
Answer: 14 mg/dL

Question: And the Total cholesterol ([1]; week 3)?
Answer: 79 mg/dL

Question: And the Triglycerides ([1]; week 3)?
Answer: 68 mg/dL

Question: What about the HDL ([1]; week 6) of the same substance?
Answer: 55 mg/dL

Question: What about the LDL ([1]; week 6) of the same substance?
Answer: 15 mg/dL

Question: And the Total cholesterol ([1]; week 6)?
Answer: 75 mg/dL

Question: And the Triglycerides ([1]; week 6)?
Answer: 103 mg/dL

Question: What about the VLDL ([1]; week 6) of the same substance?
Answer: 4 mg/dL

Question: And the Alanine transaminase levels ([2]; Cholesterol chow, Week 0)?
Answer: 19 IU/L

Question: And the Aspartate transaminase levels ([2]; Cholesterol chow, Week 0)?
Answer: 54 IU/L

Question: And the Alanine transaminase levels ([2]; Cholesterol chow, Week 3)?
Answer: 56 IU/L

Question: What about the Aspartate transaminase levels ([2]; Cholesterol chow, Week 3) of the same substance?
Answer: 72 IU/L

Question: And the Alanine transaminase levels ([2]; Cholesterol chow, Week 6)?
Answer: 76 IU/L

Question: What about the Aspartate transaminase levels ([2]; Cholesterol chow, Week 6) of the same substance?
Answer: 113 IU/L

Question: What about the Alanine transaminase levels ([2]; Normal chow, Week 0) of the same substance?
Answer: 17 IU/L

Question: What about the Aspartate transaminase levels ([2]; Normal chow, Week 0) of the same substance?
Answer: 75 IU/L

Question: What about the Alanine transaminase levels ([2]; Normal chow, Week 3) of the same substance?
Answer: 24 IU/L

Question: What about the Aspartate transaminase levels ([2]; Normal chow, Week 3) of the same substance?
Answer: 61 IU/L

Question: And the Alanine transaminase levels ([2]; Normal chow, Week 6)?
Answer: 158 IU/L

Question: And the Aspartate transaminase levels ([2]; Normal chow, Week 6)?
Answer: 196 IU/L

Question: And the “Percent inhibition of liver CETP mRNA expression, Combined primer probe sets” value (human CETP mRNA)?
Answer: 97%

Question: And the “Percent inhibition of liver CETP mRNA expression, Primer probe set hCETP” value (human CETP mRNA)?
Answer: 99%

Question: And the “Percent inhibition of liver CETP mRNA expression, Primer probe set hCETP2_LTS00182” value (human CETP mRNA)?
Answer: 95%

Question: And the “Percent inhibition of liver CETP mRNA expression” value (CETP mRNA)?
Answer: 86%

Question: What about the Body weights ([3]; Week 0) of the same substance?
Answer: 25 grams

Question: And the Body weights ([3]; Week 1)?
Answer: 27 grams

Question: What about the Body weights ([3]; Week 2) of the same substance?
Answer: 28 grams

Question: And the Body weights ([3]; Week 4)?
Answer: 28 grams

Question: What about the Body weights ([3]; week 6) of the same substance?
Answer: 29 grams

Question: And the “Organ weights, Kidney” value ([3]; week 6)?
Answer: 355.5 mg

Question: And the “Organ weights, Liver” value ([3]; week 6)?
Answer: 1.7 g

Question: And the “Organ weights, Spleen” value ([3]; week 6)?
Answer: 89.0 mg

Question: What about the Glucose levels ([4]; Cholesterol chow, Week 0) of the same substance?
Answer: 277 mg/dL

Question: And the Glucose levels ([4]; Cholesterol chow, Week 3)?
Answer: 245 mg/dL

Question: What about the Glucose levels ([4]; Cholesterol chow, Week 6) of the same substance?
Answer: 240 mg/dL

Question: What about the Glucose levels ([4]; Normal chow, Week 0) of the same substance?
Answer: 263 mg/dL

Question: And the Glucose levels ([4]; Normal chow, Week 3)?
Answer: 257 mg/dL

Question: And the Glucose levels ([4]; Normal chow, Week 6)?
Answer: 211 mg/dL

Question: And the Glucose levels ([5]; week 3)?
Answer: 333 mg/dL

Question: And the Glucose levels ([5]; week 6)?
Answer: 254 mg/dL
